The target of one series is T1, TAAR1 (Homo sapiens, UniProt Q96RJ0).
T1 sequence (Q96RJ0 1-339): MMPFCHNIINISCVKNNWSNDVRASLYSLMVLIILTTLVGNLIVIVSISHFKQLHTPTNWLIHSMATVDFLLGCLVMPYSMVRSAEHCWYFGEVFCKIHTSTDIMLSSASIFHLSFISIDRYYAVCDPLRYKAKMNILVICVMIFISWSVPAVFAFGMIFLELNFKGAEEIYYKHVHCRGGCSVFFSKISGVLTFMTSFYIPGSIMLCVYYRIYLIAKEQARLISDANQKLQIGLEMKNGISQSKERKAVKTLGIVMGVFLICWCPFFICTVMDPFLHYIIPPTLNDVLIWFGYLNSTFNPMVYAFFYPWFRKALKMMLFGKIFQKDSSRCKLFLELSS
Kind of series: BRET-based cellular cAMP (EPAC biosensor) assay of TAAR1 agonism in transfected HEK-293 cells. The note with it: for Emax: HEK293, read-out: Emax: maximum observed activation of TAAR1 relative to that observed for 1 μM of β-PEA. Background: Bioluminescence resonance energy transfer reports proximity on the nanometre scale.

[1] abbreviates: TAAR1 activation, BRET assay, HEK-293, mean from 3 assays.
Setting [2] is: relative to 1 μM β-PEA, mean from 3 BRET assays, errors ±5–10%.

Read-outs that look alike come from different tables or passages of the source.

In general, EC50 refers to the concentration giving half of the maximal effect. The low end stands for higher potency in that assay, the high end for lower potency in that assay. In general, Emax refers to the greatest response seen or fitted, relative to the assay's reference. Broadly, the melting point is the temperature of the solid-liquid transition.

Method for TAAR1: The Bioluminescence Resonance Energy Transfer approach (BRET) has been used for functional activity experiments. HEK-293 cells were transiently transfected with cDNA for TAARs and cAMP BRET biosensor (EPAC) and then plated in a 96-well plate, as described [23]. All compounds were tested at the initial concentration of 10 µM. […] A natural agonist of TAAR1 β-phenylethylamine (β-PEA) was used as a positive control.

In turn, `Cc1cc(-c2nnc(CCN)[nH]2)ccc1Br.Cl` [Compound 12, 2-(5-(4-Bromo-3-methylphenyl)-4H-1,2,4-triazol-3-yl)ethan-1-amine Hydrochloride] returned a melting point of 251 to 252 °C. Moreover, on TAAR1, the EC50 amounted to 812 nM and the Emax was 87%.
Compound `Cl.NCCc1nnc(C(c2ccccc2)c2ccccc2)[nH]1` [Compound 13, 2-(5-(Diphenylmethyl)-4H-1,2,4-triazol-3-yl)ethan-1-amine Hydrochloride] returned a melting point of 236 to 237 °C. For the same compound, the EC50 result on TAAR1 (setting [1]) is “inactive”. Besides, the “Emax: maximum observed activation of TAAR1 relative to that observed for 1 μM of β-PEA” value at TAAR1 (setting [2]) is “inactive”.
`Cl.NCCc1nnc(-c2ccc([N+](=O)[O-])cc2)[nH]1` [Compound 14, 2-(5-(4-Nitrophenyl)-4H-1,2,4-triazol-3-yl)ethan-1-amine Hydrochloride] had a melting point of 239 to 240 °C. Besides, the EC50 entry on TAAR1 (setting [1]) is “inactive”. In addition, the “Emax: maximum observed activation of TAAR1 relative to that observed for 1 μM of β-PEA” value on TAAR1 (setting [2]) is “inactive”.
`Cl.NCCc1nnc(-c2ccc(C(F)(F)F)cc2)[nH]1` [Compound 15, 2-(5-(4-[Trifluoromethyl]phenyl)-4H-1,2,4-triazol-3-yl)ethan-1-amine Hydrochloride] registered a melting point of 254 to 255 °C. Besides, at TAAR1 (setting [1]), the EC50 result was “inactive”. The “Emax: maximum observed activation of TAAR1 relative to that observed for 1 μM of β-PEA” value at TAAR1 (setting [2]) is “inactive”.
Turning to `Cl.NCCc1nnc(-c2cccs2)[nH]1` [Compound 16, 2-(5-(Thiophen-2-yl)-4H-1,2,4-triazol-3-yl)ethan-1-amine Hydrochloride], the melting point was in the range of 248 to 250 °C. For the same compound, at TAAR1, the EC50 was more than 1000 nM and the Emax was found to be 138%.
`Cl.NCCc1nnc(COc2ccccc2)[nH]1` [Compound 17, 2-(5-(Phenoxymethyl)-4H-1,2,4-triazol-3-yl)ethan-1-amine Hydrochloride] came in with a melting point of 206 to 207 °C. For the same compound, at TAAR1 (setting [1]), the concentration giving a half-maximal response (EC50) entry is “inactive”. Also, at TAAR1 (setting [2]), the “Emax: maximum observed activation of TAAR1 relative to that observed for 1 μM of β-PEA” value is “inactive”.
`Cl.NCCc1nnc(-c2ccc(OCc3ccccc3)cc2)[nH]1` [Compound 19, 2-(5-(4-(Benzyloxy)phenyl)-4H-1,2,4-triazol-3-yl)ethan-1-amine Hydrochloride] had a melting point of 238 to 240 °C. Moreover, on TAAR1, the response was half-maximal at 26 nM (EC50) and the Emax is 113%. For the same compound, the EC50 entry on TAAR1 (setting [1]) is “double-digit nanomolar range”.
Turning to `Cl.NCCc1nnc(-c2cccc(Br)c2)[nH]1` [Compound 20, 2-(5-(3-Bromophenyl)-4H-1,2,4-triazol-3-yl)ethan-1-amine Hydrochloride], the melting point was in the range of 239 to 241 °C. For the same compound, on TAAR1, a half-maximal response (EC50) required 218 nM and the maximal effect (Emax) was 124%.
For the compound `Cl.NCCc1nnc(-c2cc(Cl)cc(Cl)c2)[nH]1` [Compound 21, 2-(5-(3,5-Dichlorophenyl)-4H-1,2,4-triazol-3-yl)ethan-1-amine Hydrochloride], the melting point was 222 to 224 °C. At TAAR1, the midpoint of the response, the EC50, lay at 23 nM and the Emax amounted to 112%.
`Cl.NCCc1nnc(-c2ccccc2)[nH]1` [Compound 22, 2-(5-Phenyl-4H-1,2,4-triazol-3-yl)ethan-1-amine Hydrochloride] showed a melting point of 250 to 252 °C. For the same compound, at TAAR1, the EC50 amounted to 283 nM and the Emax was determined as 118%.
For `Cc1ccccc1-c1nnc(CCN)[nH]1.Cl` [Compound 23, 2-(5-(2-Methylphenyl)-4H-1,2,4-triazol-3-yl)ethan-1-amine Hydrochloride], in that order: 235 to 236 °C, 468 nM and 116%.
Taken in the same sequence, the figures for `CCOc1ccc(-c2nnc(CCN)[nH]2)cc1.Cl` [Compound 25, 2-(5-(4-Ethoxyphenyl)-4H-1,2,4-triazol-3-yl)ethan-1-amine Hydrochloride] were 235 to 236 °C, 550 nM and 139%.
`Cl.NCCc1nnc(-c2ccc(Cl)cc2)[nH]1` [Compound 28, 2-(5-(4-Chlorophenyl)-4H-1,2,4-triazol-3-yl)ethan-1-amine Hydrochloride] came in with a melting point of 239 to 241 °C. Moreover, at TAAR1, the EC50 was determined as 522 nM and the Emax is 107%.
Compound `Cl.NCCc1nnc(-c2ccccc2Br)[nH]1` [Compound 29, 2-(5-(2-Bromophenyl)-4H-1,2,4-triazol-3-yl)ethan-1-amine Hydrochloride] returned a melting point of 194 to 196 °C. On TAAR1, the EC50 stood at 696 nM and the Emax turned out to be 111%.
`CN(C)c1ccc(-c2nnc(CCN)[nH]2)cc1` [Compound 30, 4-(5-(2-Aminoethyl)-4H-1,2,4-triazol-3-yl)-N,N-dimethylaniline] returned a melting point of 244 to 246 °C. The “Emax: maximum observed activation of TAAR1 relative to that observed for 1 μM of β-PEA” value at TAAR1 worked out at 122. The compound further returned an EC50 on TAAR1 (setting [1]) of 730 nM.
`Cc1cc(C)cc(-c2nnc(CCN)[nH]2)c1.Cl` [Compound 31, 2-(5-(3,5-Dimethylphenyl)-4H-1,2,4-triazol-3-yl)ethan-1-amine Hydrochloride] came in with a melting point of 232 to 234 °C. Besides, on TAAR1, a half-maximal effect (EC50) was put at 813 nM and the Emax was found to be 117%.
`CCOc1cc(-c2nnc(CCN)[nH]2)cc(OCC)c1OCC.Cl` [Compound 32, 2-(5-(3,4,5-Triethoxyphenyl)-4H-1,2,4-triazol-3-yl)ethan-1-amine Hydrochloride] yielded a melting point of 253 to 255 °C. Moreover, the EC50 entry at TAAR1 (setting [1]) was “inactive”. In addition, the “Emax: maximum observed activation of TAAR1 relative to that observed for 1 μM of β-PEA” value at TAAR1 (setting [2]) was “inactive”.
`COc1cc(OC)cc(-c2nnc(CCN)[nH]2)c1.Cl` [Compound 33, 2-(5-(3,5-Dimethoxyphenyl)-4H-1,2,4-triazol-3-yl)ethan-1-amine Hydrochloride] showed a melting point of 245 to 247 °C. Further, the Emax at TAAR1 stood at 55%. Further, the EC50 on TAAR1 (setting [1]) is more than 1000 nM.
For the compound `Cl.NCCc1nnc(-c2ccc(F)cc2)[nH]1` [Compound 34, 2-(5-(4-Fluorophenyl)-4H-1,2,4-triazol-3-yl)ethan-1-amine Hydrochloride], the melting point fell in the range of 253 to 256 °C. For the same compound, on TAAR1, the EC50 is more than 1000 nM and the Emax came out at 169%.
For the compound `Cl.NCCc1nnc(-c2ccc3ncccc3c2)[nH]1` [Compound 35, 2-(5-(Quinolin-6-yl)-4H-1,2,4-triazol-3-yl)ethan-1-amine Hydrochloride], the melting point was 265 to 267 °C. Moreover, on TAAR1, the EC50 is more than 1000 nM and the maximal effect (Emax) amounted to 41%.
In turn, `Cl.NCCc1nnc(-c2cccc([N+](=O)[O-])c2)[nH]1` [Compound 36, 2-(5-(3-Nitrophenyl)-4H-1,2,4-triazol-3-yl)ethan-1-amine Hydrochloride] yielded a melting point of 214 to 216 °C. In addition, at TAAR1, it took 440 nM to reach a half-maximal effect (EC50) and the Emax stood at 110%.
In turn, `Cc1ccc(-c2nnc(CCN)[nH]2)cc1C.Cl` [Compound 37, 2-(5-(3,4-Dimethylphenyl)-4H-1,2,4-triazol-3-yl)ethan-1-amine Hydrochloride] registered a melting point of 231 to 234 °C. In addition, on TAAR1, the EC50 is more than 1000 nM and the Emax was 70%.

The values are drawn from publication PMC9687812, “Discovery of Trace Amine-Associated Receptor 1 (TAAR1) Agonist 2-(5-(4′-Chloro-[1,1′-biphenyl]-4-yl)-4H-1,2,4-triazol-3-yl)ethan-1-amine (LK00764) for the Treatment of Psychotic Disorders” (Biomolecules, 2022).
